Reference: US20160016989A1, “Synthetic Polymers Containing Amino Acid Side Chains” (CHIMEROCHEM LLC, priority 2013, published 2016)

How the values were obtained:
[1] = system: Histidine specific antibody (polyclonal IgG ab6442 from ABCAM); test: Native polyacrylamide gel shift with Histidine specific antibody; type: binding; settings: native 12% polyacrylamide gel; compared to 20-mer polydT controls
Method: Example using monomer to produce a H-tag. Six His side chain monomers (H) as described in example 1 c2 are added during oligonucleotide synthesis to the 5′ position of a 20mer polydT, such that the final sequence is 5′HHH HHH TTT TTT TTT TTT TTT TTT TT3′. H is used at a concentration of 0.1M in acetonitrile for synthesis. The chimeric polymer is synthesized according to manufacturer's recommendations for the ABI Expedite synthesizer. After deprotection the H-tagged polydT was incubated with Histidine specific antibody (polyclonal IgG ab6442 from ABCAM). A control sample of 20-mer polydT was also incubated with the Histidine specific antibody. A native 12% polyacrylamide (20:1 acrylamide:bis) was loaded with 4 samples: 20-mer polydT, 20-mer polydT+Histidine specific antibody, His-tagged 20-mer polydT, His-tagged 20-mer polydT+Histidine specific antibody.

[2] = system: VMCs from the left anterior descending, circumflex, and right coronary arteries; test: Calcium signal (fluo 3 fluorescence) and contractility of single coronary artery VMCs; type: cell-based, rhesus monkeys; settings: images at 1 minute and subsequent time points
Source text: Single VMCs from the left anterior descending, circumflex, and right coronary arteries of adult rhesus monkeys are isolated and studied both as freshly dispersed and as primary cultures. The short-term primary cultured cells (never passaged) maintain the characteristics of the source tissue for 2 to 3 weeks, including contraction, relaxation, receptors, and membrane electrical properties. VMCs are dissociated with collagenase and protease enzymes in a potassium glutamate solution (KG) that prevents loading with Na^+, Ca2^+, or Cl^− and results in a high proportion of viable, contracting cells (Miyagawa et al, Am J Physiol 272:H2645-2654, 1997; Hermsmeyer et, Art Thromb Vasc Biol, 24:955-961, 2004). […]
Freshly dispersed or primary cultured VMCs on glass coverslips are placed in a chamber of laminar flow design on an Axiovert inverted fluorescence microscope and observed with a Zeiss Plan Neofluar 25X/0.80 water immersion objective. Fluorescence intensity is measured with high sensitivity calibrated video sensor and recorded digitally via computer acquisition and management program. […] Fluorescent images are taken at 1 minute and subsequent time points from which light intensity is equated to changes in calcium signal (fluorescence) and cell contractility.

5′HHH HHH TTT TTT TTT TTT TTT TTT TT3′ [His-tagged 20-mer polydT]
gel shift on addition of the Histidine specific antibody [1]: gel shift

NC(=O)CC[C@@H]1NC(=O)[C@H](Cc2ccccc2)NC(=O)[C@H](Cc2ccc(O)cc2)NC(=O)[C@@H](N)CSSC[C@@H](C(=O)N2CCC[C@H]2C(=O)N[C@@H](CCCN=C(N)N)C(=O)NCC(N)=O)NC(=O)[C@H](CC(N)=O)NC1=O [arginine vasopressin]
calcium signal (fluorescence) ([2]; individual VMC loaded with 3 μM fluo 3): affect
cell contractility ([2]; individual VMC): affect
